{
  "source": "patent US8314150B2",
  "about": "“Kinase protein binding inhibitors” (priority 2008, dated 2012)",
  "key": {"c-Src phosphorylation": {"test_system": "c-Src phosphorylation", "assay": "Phosphorylation of c-Src in cells", "format": "cell-based", "details": "not shown", "experimental": "(§1) Cell Viability Assay—The Cells were treated with peptides for 24 hours at different peptide concentrations. The 3-(4,5-dimethylthiazol-2-yl)-5-(3-carboxymethoxyphenyl)-2-(4-sulfophenyl)-2H-tetrazolium compound from Promega Viability kit (Madison, Ill.) was added, and the cells were incubated at 37° C. for 1-2 hours. The optical density on 96-plate was analyzed with a microplate reader at 490 nm to determine cell viability. In addition, cells were stained with trypan blue after 24 hours of treatment with Y15 and the percent of cells that stained positive were determined with a hemacytometer. […] Then 2% SDS was added to the dried plated and OD at 590 nm was measured for detecting cell adhesion. […] Protein concentrations were determined using a Bio-Rad Kit. The boiled samples were loaded on Ready SDS-10% PAGE gels (Bio Rad, Inc) and used for Western blot analysis with the protein-specific antibody. […] Detachment Assay—Cells were plated with and without inhibitors for 24 hours, and detached and attached cells were counted in a hemocytometer. We calculated the percent of detachment by dividing the number of detached cells by the total number of cells. The percent of detached cells was calculated in three independent experiments. […] For each experiment 300 cells per treatment were counted. […]"}, "[1]": {"test_system": "Y397 phosphorylation of FAK", "assay": "Western blotting with Y397 FAK antibody, Panc-1 cells", "format": "cell-based, human", "details": "24 hours", "experimental": "Cell Viability Assay—The Cells were treated with peptides for 24 hours at different peptide concentrations. The 3-(4,5-dimethylthiazol-2-yl)-5-(3-carboxymethoxyphenyl)-2-(4-sulfophenyl)-2H-tetrazolium compound from Promega Viability kit (Madison, Ill.) was added, and the cells were incubated at 37° C. for 1-2 hours. The optical density on 96-plate was analyzed with a microplate reader at 490 nm to determine cell viability. In addition, cells were stained with trypan blue after 24 hours of treatment with Y15 and the percent of cells that stained positive were determined with a hemacytometer. Cell adhesion assay—The poly-L-Lysine or Collagen (5 μg/ml) coated 96-well plates were blocked with the blocking buffer (medium with 0.5% BSA) for 1 hour at 37 C. The cells were pre-treated with drugs for 3 hours and plated for adhesion at 4×10^5 cells. Cells were incubated at 37 C for 1 hour, fixed in 3.7% formaldehyde, washed in 0.1% BSA in PBS and stained with crystal violet (5 mg/ml in 2% ethanol) for 10 minutes. Then 2% SDS was added to the dried plated and OD at 590 nm was measured for detecting cell adhesion. […] Protein concentrations were determined using a Bio-Rad Kit. The boiled samples were loaded on Ready SDS-10% PAGE gels (Bio Rad, Inc) and used for Western blot analysis with the protein-specific antibody. […] Detachment Assay—Cells were plated with and without inhibitors for 24 hours, and detached and attached cells were counted in a hemocytometer. We calculated the percent of detachment by dividing the number of detached cells by the total number of cells. The percent of detached cells was calculated in three independent experiments. […] The percent of apoptotic cells was calculated as a ratio of apoptotic detached cells divided by the total number of cells in three independent experiments in several fields with the fluorescent microscope. For each experiment 300 cells per treatment were counted. […]"}, "FAK": {"target": "T1, FAK (Homo sapiens, UniProt Q05397)", "T1 construct": "made in house; host or cells: Baculovirus system", "T1 sequence (Q05397 whole entry)": "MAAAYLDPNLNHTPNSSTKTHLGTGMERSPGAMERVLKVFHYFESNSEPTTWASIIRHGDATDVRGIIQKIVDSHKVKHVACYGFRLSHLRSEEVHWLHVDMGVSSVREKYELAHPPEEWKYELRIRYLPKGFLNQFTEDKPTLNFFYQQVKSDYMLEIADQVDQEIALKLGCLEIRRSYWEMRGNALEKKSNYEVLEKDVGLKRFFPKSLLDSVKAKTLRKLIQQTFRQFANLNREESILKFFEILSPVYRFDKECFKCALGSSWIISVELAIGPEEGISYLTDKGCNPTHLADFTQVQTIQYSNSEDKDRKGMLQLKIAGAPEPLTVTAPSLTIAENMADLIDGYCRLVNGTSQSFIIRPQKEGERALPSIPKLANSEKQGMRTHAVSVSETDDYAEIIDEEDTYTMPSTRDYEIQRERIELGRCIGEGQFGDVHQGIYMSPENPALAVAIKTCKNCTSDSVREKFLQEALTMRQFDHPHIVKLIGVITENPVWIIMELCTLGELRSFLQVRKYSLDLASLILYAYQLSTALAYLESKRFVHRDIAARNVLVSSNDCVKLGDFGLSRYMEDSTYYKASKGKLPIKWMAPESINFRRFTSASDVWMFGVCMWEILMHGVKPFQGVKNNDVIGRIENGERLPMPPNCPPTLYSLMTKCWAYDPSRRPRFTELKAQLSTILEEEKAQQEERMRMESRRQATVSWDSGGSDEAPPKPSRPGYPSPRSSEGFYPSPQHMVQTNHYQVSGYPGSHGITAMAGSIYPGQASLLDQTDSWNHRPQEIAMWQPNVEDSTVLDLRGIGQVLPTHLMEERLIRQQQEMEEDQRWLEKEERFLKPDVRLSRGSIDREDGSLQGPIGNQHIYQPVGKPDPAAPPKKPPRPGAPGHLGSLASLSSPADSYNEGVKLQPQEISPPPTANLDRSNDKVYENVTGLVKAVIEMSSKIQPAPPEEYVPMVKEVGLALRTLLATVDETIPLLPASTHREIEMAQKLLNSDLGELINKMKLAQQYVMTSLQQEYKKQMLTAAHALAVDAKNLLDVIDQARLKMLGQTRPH", "assay": "In vitro kinase assay with purified recombinant FAK", "format": "biochemical", "details": "doses 1-100 μM tested", "experimental": "as §1"}, "[2]": {"test_system": "Panc-1 and Miapaca-2 cells", "assay": "Trypan blue staining, pancreatic cancer cells", "format": "cell-based, human", "details": "increasing doses, 24 hours", "experimental": "as §1"}, "pancreatic tumor cells": {"test_system": "pancreatic tumor cells", "assay": "Cell adhesion assay on collagen-coated plates, pancreatic tumor cells", "format": "cell-based, human", "experimental": "as §1"}, "Miapaca-2 cells": {"test_system": "Miapaca-2 cells", "assay": "Detachment assay, Miapaca-2", "format": "cell-based, human", "experimental": "as §1"}, "FAK-Y397 phosphorylation": {"test_system": "FAK-Y397 phosphorylation", "assay": "FAK-Y397 levels in Panc-1 tumors by Western blotting", "format": "in vivo, mice", "details": "30 mg/kg, day 36, vs PBS", "experimental": "as §1"}},
  "data": [
    {"smiles": "Cl.Cl.Cl.Cl.Nc1cc(N)c(N)cc1N", "note": "[Y15, 1,2,4,5-benzenetetraamine tetrahydrochloride]", "values": [
      {"measurement": "phosphorylation of c-Src", "setting": "c-Src phosphorylation", "result": "did not inhibit"},
      {"measurement": "inhibition of Y397 phosphorylation compared with TAE226", "setting": "[1]; 100 μM", "result": "same or better inhibition as TAE226"},
      {"measurement": "dose from which Y397 phosphorylation of FAK was inhibited", "setting": "[1]", "result": 0.1, "unit": "µM"},
      {"measurement": "total FAK level", "setting": "[1]; higher doses", "result": "down regulated"},
      {"measurement": "dose from which FAK autophosphorylation activity was directly blocked", "setting": "FAK", "result": 1},
      {"measurement": "cell viability (trypan blue)", "setting": "[2]", "result": "decreased cell viability indicative of necrosis"},
      {"measurement": "cell adhesion", "setting": "pancreatic tumor cells; 50 μM", "result": "decreased adhesion in a similar fashion to 50 μM of TAE226"},
      {"measurement": "dose from which cell adhesion was significantly decreased", "setting": "pancreatic tumor cells; collagen-coated plates", "result": 10, "unit": "µM"},
      {"measurement": "dose from which detachment was significant", "setting": "Miapaca-2 cells", "result": 3, "unit": "µM"},
      {"measurement": "Y397 phosphorylation in tumors", "setting": "FAK-Y397 phosphorylation", "result": "lower levels of Y397 phosphorylation"}
    ]}
  ]
}
